The text below walks through data of patent US7354949B2, “Therapeutic agent for bladder irritative symptoms associated with benign prostatic hyperplasia” (Kyowa Hakko Kogyo Co., Ltd., priority 2001, dated 2008).

A value given as a limit tells only on which side of the number the result lay.

For data set [1], the system named is rats with partial urethral obstruction. Briefly: Activity to increase the bladder capacity of rats with partial urethral obstruction (intravesical saline infusion). Format: in vivo, rat. The conditions noted are these: summary of Test Example 2. Here is the method:
(§1) The experiment was carried out according to the method of Saito, et al. [J. Urol., Vol. 150, pp. 1045-1051 (1993)].
Male SD rats of 8 to 9 weeks of age (supplied by Japan SLC) were used in the test. Five to seven rats were put in each metal cage and reared by allowing them to freely take commercially available chow and water, in an animal room at a room temperature between 19 and 25° C. and humidity between 30 and 70% under illumination for 12 hours (from 7:00 a.m. to 7:00 p.m.) per day.
The rats were subjected to operation of partial urethral obstruction. […]
Five to seven days after the operation of the partial urethral obstruction and the catheter implantation, the rats with partial urethral obstruction and the sham-operated rats were put in Bollman cages (KN-326-1, Natsume Seisakusho Co., Ltd.) under restraint. […] One end of the cock was connected to a pressure transducer (DX-360, Nihon Kohden Corp.), and the intravesical pressure signal was amplified via a strain pressure amplifier (AP-601G, Nihon Kohden Corp.), measured with a polygraph (RMP-6008, Nihon Kohden Corp.) and recorded on a thermal array recorder (RTA-1200, Nihon Kohden Corp.). […] The bladder capacity was calculated from the period of time until occurrence of micturition (infusion rate 6 ml/h×infusion time). […]

For data set [2] the test system is unchanged. Briefly: Inhibitory activity on urinary frequency due to partial urethral obstruction (micturition test in metabolic cages). The data set is classed as in vivo, rat. Here is the method: as §1
Male SD rats of 8 to 9 weeks of age (supplied by Japan SLC) were used in the test. Five to seven animals of these rats were put in each metal cage and reared by allowing them to freely take commercially available chow and water, in an animal room at room temperature between 19 and 25° C. and humidity between 30 and 70% under illumination for 12 hours (from 7:00 a.m. to 7:00 p.m.) per day.
The rats were subjected to operation of partial urethral obstruction. Each rat was anesthetized by intraperitoneal administration of 50 mg/kg pentobarbital sodium (Dainippon Pharmaceutical Co., Ltd.) and placed in the supine position. The abdominal midline incision was made in a length of about 1 cm to expose the bladder, prostate and the urethra. After the bladder neck and base were peeled from the prostate, two surgical suture threads (No. 3, Natsume Seisakusho Co., Ltd.) were passed behind the urethral base. A polyethylene tube (PE-200, Nippon Becton Dickinson Co., Ltd.) was placed along the urethra, and the urethra was loosely double-ligated together with the tube. The ligation was made in such a manner that the urethra was not pressed with the polyethylene tube and the suture was not slack. Then, the polyethylene tube was pulled out and the urethra was partially obstructed. The incised part of abdomen was sutured with a surgical thread.
Five to seven days after the partial urethral obstruction operation, the rats with partial urethral obstruction and the sham-operated rats were put in metabolic cages (KN-649, Natsume Seisakusho Co., Ltd.). For acclimation, the rats were reared for one day with free drinking and feeding, and the micturition test was started the following day. The amount of urination in the rats was continuously measured as the weight using an electronic balance (HF-200, A & D Company Ltd.), and was recorded on a thermal array recorder (RTA-1200, Nihon Kohden Corp.) via a direct current amplifier (AD-601G, Nihon Kohden Corp.). The data were collected during the light period under illumination (9:00-18:00) and the dark period without illumination (19:00-4:00), and the number of micturitions and the micturition volume in each period were measured to calculate the urinary frequency (the number of micturitions per 9 hours), the voided volume per micturition and the total urine volume as the measurement parameters. The voided volume per micturition was calculated by dividing the total urine volume per 9 hours by the urinary frequency per 9 hours. On the next day, a test compound or a vehicle (0.5 w/v% aqueous methylcellulose 400 cP solution) was orally administered twice (between 8:00 and 9:00, and between 18:00 and 19:00). The number of micturitions and the urine volume were measured from 9:00 to 18:00 and from 19:00 to 4:00 in the same manner as on the previous day to obtain the measurement values. The changes in the values of each parameter induced by the administration of the compound were also calculated. In the sham-operated group, the urinary frequency, the voided volume per micturition and the total urine volume obtained on the first day of the micturition test were compared with those in the groups of partial urethral obstruction. The average±standard error of the urinary frequency, voided volume per micturition and the total urine volume was calculated for each group.

For data set [3], the system named is dd male mice. Briefly: Acute toxicity test. The conditions noted are these: oral administration, mortality on the seventh day. Format: in vivo. How it is done:
The test compound was administered orally or intraperitoneally to animals per group of dd male mice (body weight: 20±1 g). The minimum lethal dose (MLD) value was obtained by observing mortality on the seventh day after the administration.

Where [4] appears, read: Dark period (Active period), after oral administration.
Where [5] appears, read: Dark period (Active period), before administration.
The mark [6] stands for this setting: Light period (Inactive period), after oral administration.
[7] abbreviates: Light period (Inactive period), before administration.

With `C[C@](O)(C(=O)Nc1cccc2c1C(=O)c1sccc1CS2(=O)=O)C(F)(F)F` [Compound 1, (S)-(+)-N-(5,5-dioxido-10-oxo-4,10-dihydrothieno[3,2-c][1]benzothiepin-9-y1)-3,3,3-trifluoro-2-hydroxy-2-methylpropanamide], in data set [1], the “effect on bladder capacity (in words)” value is reported as “tended to increase”. Besides, in data set [1], the “effect on micturition volume (in words)” value is given as “significantly increased”. Further, the Total urine volume was determined as 4.83 ± 0.83 mL/9 hours in data set [2] (setting [4]), 3.57 ± 0.57 mL/9 hours in data set [2] (setting [5]), 4.76 ± 0.78 mL/9 hours in data set [2] (setting [6]) and 4.80 ± 0.31 mL/9 hours in data set [2] (setting [7]). Further, the Urinary frequency in data set [2] (setting [4]) is listed as 6.7 ± 1.2 micturitions/9 hours; in data set [2] (setting [5]) it was 10.0 ± 1.3 micturitions/9 hours; in data set [2] (setting [6]) it was 5.3 ± 0.4 micturitions/9 hours; in data set [2] (setting [7]), 8.7 ± 0.8 micturitions/9 hours. Besides, the “effect on urinary frequency (in words)” value in data set [2] (summary of Test Example 1) is “significantly decreased”. Besides, in data set [2] (summary of Test Example 1), the “effect on voided volume per micturition (in words)” value is given as “tended to increase”. The “minimum lethal dose (MLD)” value in data set [3] is listed as > 1000 mg/kg.
